Results published in patent publication US20240025919A1, “AZA-TETRACYCLIC OXAZEPINE COMPOUNDS AND USES THEREOF” (Genentech, Inc., priority 2022, published 2024).

What was measured:
KRAS WT = KRAS WT (Homo sapiens (Human), UniProt P01116); test: KRAS WT Biochemical Assay, BODIPY-GDP Exchange TR-FRET (Example 502; 0.06 nM KRAS WT, 15 nM GDP, 300 nM SOS1, 120-minute incubation); settings: read-out: KRas HTRF IC50
Procedure, shortened: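 IC50 from a 4-parameter Hill fit of percent inhibition, itself the TR-FRET 520/490 nm ratio scaled between DMSO and a fully inhibiting control. Reaction: 300 nM SOS1 and 300 nM BODIPY-GDP added to preformed 0.06 nM KRAS WT/15 nM GDP/Tb-streptavidin complex; 120 min incubation; pH 7.5 HEPES, MgCl2, DTT.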

KRAS G12D = KRAS G12D (Homo sapiens (Human), UniProt P01116, G12D); test: KRAS G12D LoEnz Biochemical Assay, BODIPY-GDP Exchange TR-FRET (SOS1-mediated nucleotide exchange); settings: read-out: KRas (G12D) GDP HTRF IC50
Sequence of KRAS G12D (P01116-2 other isoform, or with tags, fused parts or gaps G12D): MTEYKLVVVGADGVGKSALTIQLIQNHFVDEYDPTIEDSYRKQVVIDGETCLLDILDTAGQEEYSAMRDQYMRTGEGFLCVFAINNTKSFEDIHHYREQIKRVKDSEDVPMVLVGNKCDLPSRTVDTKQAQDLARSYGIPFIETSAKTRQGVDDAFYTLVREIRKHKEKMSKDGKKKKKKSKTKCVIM

Sequence of KRAS WT (P01116-2 other isoform, or with tags, fused parts or gaps): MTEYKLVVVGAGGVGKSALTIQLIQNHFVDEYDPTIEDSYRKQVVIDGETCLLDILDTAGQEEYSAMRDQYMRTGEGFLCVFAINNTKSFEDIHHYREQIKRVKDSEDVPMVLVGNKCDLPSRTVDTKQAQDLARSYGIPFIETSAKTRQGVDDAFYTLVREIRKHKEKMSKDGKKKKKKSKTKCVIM

Row | Compound | IC50 (KRAS WT) | IC50 (KRAS G12D)
1 | C[C@@H]1Oc2nc(-c3cccc4sc(N)nc34)c(F)c3nc(OC[C@@]45CCCN4C[C@H](F)C5)nc(c23)N2C[C@H]3CC[C@H](N3)[C@@H]12 [Compound 116, 4-((5S,5aS,6S,9R)-1-fluoro-12-(((2R,7aS)-2-fluorotetrahydro-1H-pyrrolizin-7a(5H)-yl)methoxy)-5-methyl-5a,6,7,8,9,10-hexahydro-5H-4-oxa-3,10a,11,13,14-pentaaza-6,9-methanonaphtho[1,8-ab]heptalen-2-yl)benzo[d]thiazol-2-amine] | 213 nM | 2.41 nM
2 | C[C@@H]1Oc2nc(-c3cc(N)ccc3C(C)(C)C)c(F)c3nc(OC[C@@]45CCCN4C[C@H](F)C5)nc(c23)N2C[C@H]3CC[C@H](N3)[C@@H]12 [Compound 117, 4-(tert-butyl)-3-((5S,5aS,6S,9R)-1-fluoro-12-(((2R,7aS)-2-fluorotetrahydro-1H-pyrrolizin-7a(5H)-yl)methoxy)-5-methyl-5a,6,7,8,9,10-hexahydro-5H-4-oxa-3,10a,11,13,14-pentaaza-6,9-methanonaphtho[1,8-ab]heptalen-2-yl)aniline] | 638 nM | 4.84 nM
3 | Cc1c(F)c(N)cc(-c2nc3c4c(nc(OCC5(CN6CCOCC6)CC5)nc4c2F)N2C[C@H]4CC[C@H](N4)[C@H]2[C@H](C)O3)c1C(F)(F)F [Compound 118, 2-Fluoro-5-((5S,5aS,6S,9R)-1-fluoro-5-methyl-12-((1-(morpholinomethyl)cyclopropyl)methoxy)-5a,6,7,8,9,10-hexahydro-5H-4-oxa-3,10a,11,13,14-pentaaza-6,9-methanonaphtho[1,8-ab]heptalen-2-yl)-3-methyl-4-(trifluoromethyl)aniline] | 1.76 nM | 0.09 nM
4 | Cc1c(F)c(N)cc(-c2nc3c4c(nc(OC[C@@H]5CCC6C=C(F)CCN65)nc4c2F)N2C[C@H]4CC[C@H](N4)[C@H]2[C@H](C)O3)c1C(F)(F)F (stereo partly drawn) [Compound 120, 2-fluoro-5-((5S,5aS,6S,9R)-1-fluoro-12-(((3S)-7-fluoro-1,2,3,5,6,8a-hexahydroindolizin-3-yl)methoxy)-5-methyl-5a,6,7,8,9,10-hexahydro-5H-4-oxa-3,10a,11,13,14-pentaaza-6,9-methanonaphtho[1,8-ab]heptalen-2-yl)-3-methyl-4-(trifluoromethyl)aniline] | 44.5 nM | 0.24 nM
5 | Cc1c(F)c(N)cc(-c2nc3c4c(nc(OC[C@@]56CCC(C)N5C[C@H](F)C6)nc4c2F)N2C[C@H]4CC[C@H](N4)[C@H]2[C@H](C)O3)c1C(F)(F)F (stereo partly drawn) [Compound 122, 2-fluoro-5-((5S,5aS,6S,9R)-1-fluoro-12-(((2R,7aS)-2-fluoro-5-methyltetrahydro-1H-pyrrolizin-7a(5H)-yl)methoxy)-5-methyl-5a,6,7,8,9,10-hexahydro-5H-4-oxa-3,10a,11,13,14-pentaaza-6,9-methanonaphtho[1,8-ab]heptalen-2-yl)-3-methyl-4-(trifluoromethyl)aniline] | 3.72 nM | 0.11 nM
6 | Cc1c(F)c(N)cc(-c2nc3c4c(nc(OCC5CN(CC(F)F)C5)nc4c2F)N2C[C@H]4CC[C@H](N4)[C@H]2[C@H](C)O3)c1C(F)(F)F [Compound 128, 5-((5S,5aS,6S,9R)-12-((1-(2,2-Difluoroethyl)azetidin-3-yl)methoxy)-1-fluoro-5-methyl-5a,6,7,8,9,10-hexahydro-5H-4-oxa-3,10a,11,13,14-pentaaza-6,9-methanonaphtho[1,8-ab]heptalen-2-yl)-2-fluoro-3-methyl-4-(trifluoromethyl)aniline] | 156 nM | 0.48 nM
7 | Cc1c(F)c(N)cc(-c2nc3c4c(nc(OCC5(CN6CCOC[C@H]6C)CC5)nc4c2F)N2C[C@H]4CC[C@H](N4)[C@H]2[C@H](C)O3)c1C(F)(F)F [Compound 129, 2-Fluoro-5-((5S,5aS,6S,9R)-1-fluoro-5-methyl-12-((1-(((R)-3-methylmorpholino)methyl)cyclopropyl)methoxy)-5a,6,7,8,9,10-hexahydro-5H-4-oxa-3,10a,11,13,14-pentaaza-6,9-methanonaphtho[1,8-ab]heptalen-2-yl)-3-methyl-4-(trifluoromethyl)aniline] | 3.87 nM | 0.18 nM
8 | Cc1c(F)c(N)cc(-c2nc3c4c(nc(OCC56COC(CN5C)C6)nc4c2F)N2C[C@H]4CC[C@H](N4)[C@H]2[C@H](C)O3)c1C(F)(F)F [Compound 132, 2-Fluoro-5-((5S,5aS,6S,9R)-1-fluoro-5-methyl-12-((5-methyl-2-oxa-5-azabicyclo[2.2.1]heptan-4-yl)methoxy)-5a,6,7,8,9,10-hexahydro-5H-4-oxa-3,10a,11,13,14-pentaaza-6,9-methanonaphtho[1,8-ab]heptalen-2-yl)-3-methyl-4-(trifluoromethyl)aniline] | 291 nM | 1.47 nM
9 | Cc1c(F)c(N)cc(-c2nc3c4c(nc(OC[C@@H]5CO[C@H]6CC[N@]5C6)nc4c2F)N2C[C@H]4CC[C@H](N4)[C@H]2[C@H](C)O3)c1C(F)(F)F [Compound 135, 5-((5S,5aS,6S,9R)-12-(((1R,2S,5S)-4-Oxa-1-azabicyclo[3.2.1]octan-2-yl)methoxy)-1-fluoro-5-methyl-5a,6,7,8,9,10-hexahydro-5H-4-oxa-3,10a,11,13,14-pentaaza-6,9-methanonaphtho[1,8-ab]heptalen-2-yl)-2-fluoro-3-methyl-4-(trifluoromethyl)aniline] | 143 nM | 0.71 nM
10 | Cc1c(F)c(N)cc(-c2nc3c4c(nc(OC[C@@H]5[C@@H]6CCN5CCO6)nc4c2F)N2C[C@H]4CC[C@H](N4)[C@H]2[C@H](C)O3)c1C(F)(F)F [Compound 136, 5-((5S,5aS,6S,9R)-12-(((5S,8R)-4-Oxa-1-azabicyclo[3.2.1]octan-8-yl)methoxy)-1-fluoro-5-methyl-5a,6,7,8,9,10-hexahydro-5H-4-oxa-3,10a,11,13,14-pentaaza-6,9-methanonaphtho[1,8-ab]heptalen-2-yl)-2-fluoro-3-methyl-4-(trifluoromethyl)aniline] | 90.8 nM | 0.38 nM
11 | Cc1c(F)c(N)cc(-c2nc3c4c(nc(OCCCN5CCOCC5)nc4c2F)N2C[C@H]4CC[C@H](N4)[C@H]2[C@H](C)O3)c1C(F)(F)F [Compound 138, 2-Fluoro-5-((5S,5aS,6S,9R)-1-fluoro-5-methyl-12-(3-morpholinopropoxy)-5a,6,7,8,9,10-hexahydro-5H-4-oxa-3,10a,11,13,14-pentaaza-6,9-methanonaphtho[1,8-ab]heptalen-2-yl)-3-methyl-4-(trifluoromethyl)aniline] | 115 nM | 0.42 nM
12 | Cc1c(F)c(N)cc(-c2nc3c4c(nc(OCC56C[C@H](F)CN5C[C@@H](F)C6)nc4c2F)N2C[C@H]4CC[C@H](N4)[C@H]2[C@H](C)O3)c1C(F)(F)F [Compound 139, 5-((5S,5aS,6S,9R)-12-(((2S,6S)-2,6-Difluorotetrahydro-1H-pyrrolizin-7a(5H)-yl)methoxy)-1-fluoro-5-methyl-5a,6,7,8,9,10-hexahydro-5H-4-oxa-3,10a,11,13,14-pentaaza-6,9-methanonaphtho[1,8-ab]heptalen-2-yl)-2-fluoro-3-methyl-4-(trifluoromethyl)aniline] | 780 nM | 2.41 nM
13 | Cc1c(F)c(N)cc(-c2nc3c4c(nc(OCC56C[C@@H](F)CN5C[C@H](F)C6)nc4c2F)N2C[C@H]4CC[C@H](N4)[C@H]2[C@H](C)O3)c1C(F)(F)F [Compound 140, 5-((5S,5aS,6S,9R)-12-(((2R,6R)-2,6-Difluorotetrahydro-1H-pyrrolizin-7a(5H)-yl)methoxy)-1-fluoro-5-methyl-5a,6,7,8,9,10-hexahydro-5H-4-oxa-3,10a,11,13,14-pentaaza-6,9-methanonaphtho[1,8-ab]heptalen-2-yl)-2-fluoro-3-methyl-4-(trifluoromethyl)aniline] | 18.4 nM | 0.14 nM
14 | Cc1c(F)c(N)cc(-c2nc3c4c(nc(OC[C@]56C[C@H](F)CN5C[C@H](F)C6)nc4c2F)N2C[C@H]4CC[C@H](N4)[C@H]2[C@H](C)O3)c1C(F)(F)F [Compound 141, 5-((5S,5aS,6S,9R)-12-(((2R,6S,7ar)-2,6-Difluorotetrahydro-1H-pyrrolizin-7a(5H)-yl)methoxy)-1-fluoro-5-methyl-5a,6,7,8,9,10-hexahydro-5H-4-oxa-3,10a,11,13,14-pentaaza-6,9-methanonaphtho[1,8-ab]heptalen-2-yl)-2-fluoro-3-methyl-4-(trifluoromethyl)aniline] | 85 nM | 0.26 nM
15 | Cc1c(F)c(N)cc(-c2nc3c4c(nc(OC[C@@]56C[C@H](F)CN5C[C@H](F)C6)nc4c2F)N2C[C@H]4CC[C@H](N4)[C@H]2[C@H](C)O3)c1C(F)(F)F [Compound 142, 5-((5S,5aS,6S,9R)-12-(((2R,6S,7as)-2,6-Difluorotetrahydro-1H-pyrrolizin-7a(5H)-yl)methoxy)-1-fluoro-5-methyl-5a,6,7,8,9,10-hexahydro-5H-4-oxa-3,10a,11,13,14-pentaaza-6,9-methanonaphtho[1,8-ab]heptalen-2-yl)-2-fluoro-3-methyl-4-(trifluoromethyl)aniline] | 33.2 nM | 0.2 nM
16 | Cc1c(F)c(N)cc(-c2nc3c4c(nc(OC[C@H](F)CN5CC6(COC6)C5)nc4c2F)N2C[C@H]4CC[C@H](N4)[C@H]2[C@H](C)O3)c1C(F)(F)F [Compound 144] | 99.5 nM | 0.5 nM
17 | Cc1c(F)c(N)cc(-c2nc3c4c(nc(OC[C@@H](F)CN5CC6(COC6)C5)nc4c2F)N2C[C@H]4CC[C@H](N4)[C@H]2[C@H](C)O3)c1C(F)(F)F [Compound 145] | 171 nM | 0.67 nM
18 | Cc1c(F)c(N)cc(-c2nc3c4c(nc(OC[C@@H](F)CN5CC(CO)(CO)C5)nc4c2F)N2C[C@H]4CC[C@H](N4)[C@H]2[C@H](C)O3)c1C(F)(F)F [Compound 146] | 114 nM | 0.76 nM
